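Where inhibition never reached the appropriate level, the endpoint shown equals the highest concentration tested. Otherwise, values were interpolated linearly from a five-concentration, 48-hour dose response in 96-well plates. GI50 marks 50% less growth. TGI denotes the concentration required for complete inhibition of growth.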
Tests used:
Experiment in all cases: growth of human tumour cells (NCI), 48 h
[1] = test system: SW-620 colon
[2] = test system: NCI-H522 lung
[3] = test system: RXF 393 renal
[4] = test system: U251 CNS
[5] = test system: DU-145 prostate
[6] = test system: SF-295 CNS
[7] = test system: M14 melanoma
[8] = test system: SK-MEL-28 melanoma
[9] = test system: BT-549 breast
[10] = test system: HCC-2998 colon
[11] = test system: IGROV1 ovarian
[12] = test system: 786-0 renal
[13] = test system: HOP-92 NSCLC
[14] = test system: RPMI-8226 leukemia
[15] = test system: A498 renal
[16] = test system: SR leukemia
[17] = test system: MCF7 breast
[18] = test system: NCI-H460 lung
[19] = test system: MDA-MB-435
[20] = test system: HL-60(TB) leukemia
[21] = test system: OVCAR-3 ovarian
[22] = test system: SNB-75 CNS
[23] = test system: A549 NSCLC
[24] = test system: NCI-H226 lung
[25] = test system: SK-MEL-2 melanoma
[26] = test system: HS 578T breast
[27] = test system: TK-10 renal
[28] = test system: UO-31 renal
[29] = test system: KM12 colon
[30] = test system: COLO 205 colon
[31] = test system: K-562 leukemia
[32] = test system: MALME-3M melanoma
[33] = test system: HT29 colon
[34] = test system: T-47D breast
[35] = test system: OVCAR-5 ovarian
[36] = test system: UACC-257 melanoma
[37] = test system: NCI-H23 lung
[38] = test system: MOLT-4 leukemia
[39] = test system: UACC-62 melanoma
[40] = test system: HCT-15 colon
[41] = test system: MDA-MB-231 breast
[42] = test system: SK-OV-3 ovarian
[43] = test system: LOX IMVI melanoma
[44] = test system: SF-268 CNS
[45] = test system: SK-MEL-5 melanoma
[46] = test system: CAKI-1 renal
[47] = test system: SF-539 CNS
[48] = test system: EKVX NSCLC
[49] = test system: ACHN renal
[50] = test system: SN12C renal
[51] = test system: OVCAR-4 ovarian

Question: What does the source list for CCN(CC)CCCN1C(=O)c2c(c(C)c3c(oc4ccc(O)cc43)c2C)C1=O?
Answer: GI50 [1]: 1700 nM; TGI [1]: 3.52 µM; GI50 [2]: 1840 nM; TGI [2]: 3.75 µM; GI50 [3]: 1490 nM; TGI [3]: 2970 nM; GI50 [4]: 1580 nM; TGI [4]: 2980 nM; GI50 [5]: 1840 nM; TGI [5]: 3.29 µM; GI50 [6]: 1820 nM; TGI [6]: 3.26 µM; GI50 [7]: 1760 nM; TGI [7]: 3.2 µM; GI50 [8]: 1820 nM; TGI [8]: 3.38 µM; GI50 [9]: 1750 nM; TGI [9]: 3.26 µM; GI50 [10]: 2670 nM; TGI [10]: 7.39 µM; GI50 [11]: 1740 nM; TGI [11]: 3.31 µM; GI50 [12]: 1740 nM; TGI [12]: 3.32 µM; GI50 [13]: 1330 nM; TGI [13]: 2810 nM; GI50 [14]: 1850 nM; TGI [14]: 4.28 µM; GI50 [15]: 12.6 µM; TGI [15]: 27.2 µM; GI50 [16]: 765 nM; TGI [16]: 2780 nM; GI50 [17]: 1810 nM; TGI [17]: 3.71 µM; GI50 [18]: 1830 nM; TGI [18]: 3.47 µM; GI50 [19]: 1840 nM; TGI [19]: 3.53 µM; GI50 [20]: 1570 nM; TGI [20]: 3.43 µM; GI50 [21]: 1850 nM; TGI [21]: 3.42 µM; GI50 [22]: 1590 nM; TGI [22]: 2980 nM; GI50 [23]: 1650 nM; TGI [23]: 3.23 µM; GI50 [24]: 1930 nM; TGI [24]: 4.27 µM; GI50 [25]: 17 µM; TGI [25]: 35.9 µM; GI50 [26]: 2150 nM; TGI [26]: 5.31 µM; GI50 [27]: 1840 nM; TGI [27]: 3.35 µM; GI50 [28]: 1580 nM; TGI [28]: 3.01 µM; GI50 [29]: 1830 nM; TGI [29]: 3.55 µM; GI50 [30]: 2640 nM; TGI [30]: 10.8 µM; GI50 [31]: 1710 nM; TGI [31]: 3.77 µM; GI50 [32]: 1730 nM; TGI [32]: 3.25 µM; GI50 [33]: 1550 nM; TGI [33]: 3.02 µM; GI50 [34]: 2170 nM; TGI [34]: 5.33 µM; GI50 [35]: 1700 nM; TGI [35]: 3.13 µM; GI50 [36]: 1880 nM; TGI [36]: 3.92 µM; GI50 [37]: 1990 nM; TGI [37]: 3.8 µM; GI50 [38]: 1800 nM; TGI [38]: 4.26 µM; GI50 [39]: 16.1 µM; TGI [39]: 31.5 µM; GI50 [40]: 1680 nM; TGI [40]: 3.22 µM; GI50 [41]: 1910 nM; TGI [41]: 3.58 µM; GI50 [42]: 1700 nM; TGI [42]: 3.1 µM; GI50 [43]: 1790 nM; TGI [43]: 3.32 µM; GI50 [44]: 1690 nM; TGI [44]: 3.43 µM; GI50 [45]: 1710 nM; TGI [45]: 3.12 µM; GI50 [46]: 2330 nM; TGI [46]: 6.52 µM; GI50 [47]: 1720 nM; TGI [47]: 3.11 µM; GI50 [48]: 1690 nM; TGI [48]: 3.27 µM; GI50 [49]: 1620 nM; TGI [49]: 2980 nM; GI50 [50]: 1780 nM; TGI [50]: 3.36 µM; GI50 [51]: 1930 nM; TGI [51]: 3.68 µM

Reference: PubChem BioAssay (NCI)
